From patent publication US12357606B2, “Compositions and methods for treating defects in avascular cartilaginous tissue by directly administering one or more metabolites of simvastatin” (University of Cincinnati, priority 2017, dated 2025)

Columns and labels:
[1] = tested on: BMP-2 mRNA expression in rat NP cells; test: BMP-2 mRNA expression in rat NP cells cultured in alginate beads (RT-qPCR); format: cell-based; conditions: for BMP-2 mRNA expression with a GGTase inhibitor, level compared with SV: single GGTase inhibitor
Description: Data are normalized with GAPDH and are expressed as ratio to vehicle (DMSO).
Findings from the investigation on SV stimulating endogenous BMP-2 expression in the treated NP cells, which in turn increases chondrogenic phenotype expression (aggrecan and type II collagen mRNA expression as well as sGAG content), were consistent with the above observations, validating that the small molecule is as efficacious in promoting chondrogenesis as to osteogenesis. […] SV has been prescribed widely for the treatment of hypercholesterolaemia and hypertriglyceridaemia. In humans, it undergoes rapid metabolism to form four major oxidative, NADPH-dependent metabolites, 3′-hydroxy SV (hSV), 6′-exomethylene SV (eSV), 3′,5′-dihydrodiol SV (dSV), and SVA (FIG. 5). […] This raised the question as to whether SVA is dominant in the entire scheme of BMP-2 upregulation. To test whether the levels of induced-BMP-2 by both SV and SVA, respectively, would be any different, the present investigators used the in vitro model system developed in the prior study to conduct the test. Rat NP cells harvested from tail discs were cultured initially in monolayer and then in alginate beads (Zhang H. et al. Spine, 2008; 33(16), the entire disclosure of which is incorporated herein by reference). Cells were treated with DMSO (vehicle), SV or SVA at 1 or 3 μM. Cells were then collected at pre-determined time points and with RNA extracted. Gene expression was analyzed by RT-qPCR. […] The BMP-2 level induced in the SVA group was 5-6 times higher than that in the SV one (FIG. 1A).
The classic mechanism understood for cholesterol lowering by statins is that statins act by competitively inhibiting HMG-CoA reductase, the first committed enzyme of the mevalonate (MVA) pathway. This competition reduces the rate by which HMG-CoA reductase is able to produce MVA, the next molecule in the cascade for the synthesis of prenylation enzyme substrates FPP and GGPP that eventually help produce cholesterol. As indicated previous studies by the inventors (Zhang H. N., Lin C. Y. Spine. 2008; 33(16), fully incorporated herein by reference), when SV was present, BMP-2 mRNA expression of NP cells always responded in a time and dose-dependent manner.

avascular tissue = test: Regeneration of avascular tissue upon direct administration; conditions: for regeneration on administration: non-HMG-CoA reductase inhibitor metabolites
BMP-2 = conditions: non-HMG-CoA reductase inhibitor metabolites
mevalonate conversion = test: Inhibition of mevalonate conversion; format: biochemical

Molecule | BMP-2 mRNA expression with a GGTase inhibitor, level compared with SV [1] | regeneration on administration (avascular tissue) | effect on BMP-2 upregulation (BMP-2) | also measured
C=C(C)[C@@H]1CC=C(CO)CC1 [POH, reference compound] | able to increase BMP-2 mRNA expression, but the level was much lower than that found with SV | – | – | –
CCC(C)(C)C(=O)OC1CC(C)C(O)C2=CC(O)C(C)C(CCC3CC(O)CC(=O)O3)C21 (centres unmarked) [dSV, 3′,5′-dihydrodiol simvastatin] | – | promoted a degree of regeneration | also affect BMP-2 upregulation | –
CCC(C)(C)C(=O)O[C@H]1C[C@@H](C)C=C2C=C[C@H](C)[C@H](CC[C@@H](O)C[C@@H](O)CC(=O)O)[C@H]21 [SVA, simvastatin beta-hydroxy acid] | – | – | – | anabolic effect relative to SV alone (avascular tissue; regeneration of avascular tissue upon direct administration): 5-6 times; inhibition of mevalonate conversion compared with SV (mevalonate conversion): more efficiently than SV; mRNA expression of BMP-2 in cells treated with SVA compared to cells treated with SV ([1]; 1 μM, Day 1 to 3, rat NP cells): the same or doubled; BMP-2 level induced in the SVA group relative to the SV group ([1]; 1 μM, Day 7, rat NP cells): 5-6 times; difference in BMP-2 level between SVA and SV ([1]; 3 μM, rat NP cells): further augmented
COC(=O)[C@H](CC(C)C)NC(=O)c1ccc(NC[C@@H](N)CS)cc1-c1ccccc1 [GGTI-286, reference compound] | able to increase BMP-2 mRNA expression, but the level was much lower than that found with SV | – | – | –
3′-hydroxy simvastatin [hSV] | – | promoted a degree of regeneration | also affect BMP-2 upregulation | –
